The target of one experiment is T1, α1d-AR (Homo sapiens, UniProt P25100).
T1 construct: expressed in transfected cells; host or cells: COS cells (pcDNA3, transient DEAE-dextran transfection; membranes)
T1 sequence (P25100 1-572): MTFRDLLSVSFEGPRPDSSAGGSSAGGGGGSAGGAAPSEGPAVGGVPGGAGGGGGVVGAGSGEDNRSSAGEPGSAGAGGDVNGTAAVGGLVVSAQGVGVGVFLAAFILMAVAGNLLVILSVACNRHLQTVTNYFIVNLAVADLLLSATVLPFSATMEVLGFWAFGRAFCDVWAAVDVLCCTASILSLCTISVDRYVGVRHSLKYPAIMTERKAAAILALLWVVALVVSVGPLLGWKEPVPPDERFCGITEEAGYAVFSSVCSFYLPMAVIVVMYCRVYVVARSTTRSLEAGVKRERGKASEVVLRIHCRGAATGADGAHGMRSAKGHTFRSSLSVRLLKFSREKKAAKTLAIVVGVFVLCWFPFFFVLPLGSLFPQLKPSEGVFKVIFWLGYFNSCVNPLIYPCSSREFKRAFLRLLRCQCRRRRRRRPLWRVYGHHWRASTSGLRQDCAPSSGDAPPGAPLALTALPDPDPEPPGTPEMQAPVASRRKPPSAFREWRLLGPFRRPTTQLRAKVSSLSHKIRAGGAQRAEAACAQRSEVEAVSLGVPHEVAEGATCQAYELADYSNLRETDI
The experiment is described as follows: receptor binding assay, [125I]-HEAT, membranes of COS cells expressing α1d-AR. The settings on record: [125I]-HEAT 50 pM, human α1d-AR in COS cell membranes; unit 'nanomolar'. An excerpt:
(§1) The DNA sequences of the three cloned human α1-AR subtypes have been published. […] We used published DNA sequence information to design primers for use in RT-PCR amplification of each subtype to obtain cloned cDNAs. Human poly A+ RNA was obtained from commercially available sources and included hippocampus and prostate samples, sources which have been cited in the literature. For the primary screen a radio ligand binding assay was used which employed membrane preparations from cells expressing the individual cloned receptor cDNAs. Radiolabeled ligands with binding activity on all three subtypes (non-selective) are commercially available ([125I]-HEAT, [3H]-prazosin).
(§2) Each α1 receptor subtype was cloned from poly A+ RNA by the standard method of reverse transcription-polymerase chain reaction (RT-PCR). The following sources of polyA+ RNA were used for the cloning of the α1 receptor subtypes: α1a -AR, human hippocampus and prostate, α1b -AR, human hippocampus, α1d -AR, human hippocampus. The resulting cDNAs were cloned into the pcDNA3 mammalian expression vector (Invitrogen Corp., San Diego Calif.). Each DNA was sequenced for verification and to detect any possible mutations introduced during the amplification process. Any deviation in sequence from the published consensus for each receptor subtype was corrected by site-directed mutagenesis.
(§3) The three α1-AR subtypes (a, b, d) were transfected into COS cells using a standard DEAE-dextran procedure with a chloroquine shock. In this procedure, each tissue culture dish (100 mm) was inoculated with 3.5×10^6 cells and transfected with 10 μg of DNA. Approximately 72 hours post-transfection, the cells were harvested and COS membranes were prepared. Transfected COS cells from 25 plates (100 mm) were scraped and suspended in 15 mL of TE buffer (50 mM Tris-HCl, 5 mM EDTA, pH7.4). The suspension was disrupted with a homogenizer. It was then centrifuged at 1000×g for 10 minutes at […]. The supernatant was centrifuged at 34,500×g for 20 minutes at 4° C. The pellet was resuspended in 5 mL TNE buffer (50 mM Tris-HCl, 5 mM EDTA, 150 mM NaCl, pH7.4). The resulting membrane preparation was aliquoted and stored at -70° C. The protein concentration was determined following membrane solubilization with TritonX-100.
(§4) The ability of each compound to bind to each of the α1-AR subtypes was assessed in a receptor binding assay. [125I]-HEAT, a non-selective α1-AR ligand, was used as the radiolabeled ligand. Each well of a 96-well plate received: 140 μL TNE, 25 μL [125I]-HEAT diluted in TNE (50,000 cpm; final concentration 50 pM), 10 μL test compound diluted in DMSO (final concentration 1 pM-10 μM), […] COS cell membrane preparation expressing one of the three α1-AR subtypes (0.05-0.2 mg membrane protein). The plate was incubated for 1 hour at room temperature and the reaction mixtures were filtered through a Packard GF/C Unifilter filter plate. The filter plate was dried for 1 hour in a vacuum oven. Scintillation fluid ([…]) was added to each well, and the filter plate was counted in a Packard Topcount scintillation counter. Data was analyzed using GraphPad Prism software.

The target in a further experiment is T2, α1a-AR (Homo sapiens, UniProt P35348).
T2 construct: expressed in transfected cells; host or cells: COS cells (pcDNA3, transient DEAE-dextran transfection; membranes)
T2 sequence (P35348 1-466): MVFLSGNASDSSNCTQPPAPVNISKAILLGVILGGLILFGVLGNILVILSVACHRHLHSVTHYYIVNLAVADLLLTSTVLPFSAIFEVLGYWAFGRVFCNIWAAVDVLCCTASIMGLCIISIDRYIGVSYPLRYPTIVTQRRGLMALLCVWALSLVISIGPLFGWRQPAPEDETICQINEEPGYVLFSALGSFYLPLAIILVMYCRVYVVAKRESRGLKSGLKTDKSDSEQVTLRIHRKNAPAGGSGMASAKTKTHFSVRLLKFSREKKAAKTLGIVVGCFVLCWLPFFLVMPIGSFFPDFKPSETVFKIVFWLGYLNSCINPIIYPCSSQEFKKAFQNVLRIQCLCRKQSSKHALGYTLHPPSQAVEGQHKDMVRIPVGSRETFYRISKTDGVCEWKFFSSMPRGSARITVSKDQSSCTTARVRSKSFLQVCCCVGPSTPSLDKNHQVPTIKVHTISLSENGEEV
Nature of the experiment: receptor binding assay, [125I]-HEAT, membranes of COS cells expressing α1a-AR. The settings on record: [125I]-HEAT 50 pM, human α1a-AR in COS cell membranes; unit 'nanomolar'.
Source text: as §1, §2, §3, §4

The target of a further experiment is T3, α1b-AR (Homo sapiens, UniProt P35368).
T3 construct: expressed in transfected cells; host or cells: COS cells (pcDNA3, transient DEAE-dextran transfection; membranes)
T3 sequence (P35368 1-520): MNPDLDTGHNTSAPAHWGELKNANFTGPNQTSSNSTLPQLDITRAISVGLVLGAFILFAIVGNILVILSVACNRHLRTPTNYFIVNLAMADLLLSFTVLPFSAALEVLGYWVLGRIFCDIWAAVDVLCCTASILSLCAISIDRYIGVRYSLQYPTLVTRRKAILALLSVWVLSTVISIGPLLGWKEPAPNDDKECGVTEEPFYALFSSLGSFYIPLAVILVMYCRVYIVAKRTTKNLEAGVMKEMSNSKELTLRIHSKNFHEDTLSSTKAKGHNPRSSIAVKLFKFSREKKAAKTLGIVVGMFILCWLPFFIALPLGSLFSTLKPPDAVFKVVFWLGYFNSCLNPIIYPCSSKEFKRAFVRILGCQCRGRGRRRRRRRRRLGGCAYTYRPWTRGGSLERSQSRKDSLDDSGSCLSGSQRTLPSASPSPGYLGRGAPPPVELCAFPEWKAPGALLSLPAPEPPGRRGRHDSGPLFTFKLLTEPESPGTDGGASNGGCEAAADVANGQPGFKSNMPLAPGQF
The experiment is described as follows: receptor binding assay, [125I]-HEAT, membranes of COS cells expressing α1b-AR. The settings on record: [125I]-HEAT 50 pM, human α1b-AR in COS cell membranes; unit 'nanomolar'.
Source text: as §1, §2, §3, §4

Another experiment has as its system 5α-reductase. The settings on record: cited from earlier work.
The subject of the next experiment is symptomatic BPH. The settings on record: human, in vivo; cited from earlier work.

As for `CC(C)Oc1ccccc1N1CCN(CC(O)CNC(=O)c2cccnc2Oc2ccc(Cl)cc2)CC1` (stereo not shown) [Compound 42], the IC50 at α1d-AR was determined as 74 nM; at α1a-AR, 1 nM; at α1b-AR, 838 nM.

For `CC(C)Oc1ccccc1N1CCN(CC(O)CNC(=O)c2cccnc2Sc2ccccc2)CC1` (stereo not shown) [Compound 43], the values for the half-inhibitory concentration (IC50) at α1d-AR, on α1a-AR and on α1b-AR were 70 nM, 2 nM and 1220 nM, respectively.

As to `CC(C)(C)NC(=O)[C@H]1CC[C@H]2[C@@H]3CC[C@H]4NC(=O)C=C[C@]4(C)[C@H]3CC[C@]12C` [finasteride], the “inhibition of 5α-reductase (in words)” value in the experiment on 5α-reductase was “potent 5α-reductase inhibitor”. In the experiment with symptomatic BPH, the “effectiveness in treating symptomatic BPH (in words)” value is given as “only moderately effective”; the “serum and tissue concentrations of dihydrotestosterone (in words)” value is listed as “marked decrease”; the “time for effects to become evident” value is on record as 6-12 months.

The IC50 is the midpoint of a concentration-inhibition curve. Low readings indicate higher potency, high ones lower potency.

The values are drawn from patent publication US6218396A, “Substituted pyridino arylpiperazines useful in the treatment of benign prostatic hyperplasia” (Orth-McNeil Pharmaceutical, Inc., priority 1999, dated 2001).
